According to US9833497B2, “Human originated EGF domain proteins and use of the same” (CHENGDU SOURCEBIO LIMITED-LIABILITY COMPANY, priority 2013, dated 2017):

Assays:
Type in all cases: cell-based
[1] = test system: E. coli DH5α; assay: Antibacterial activity: MIC and growth curve against E. coli DH5α in 96-well plate; conditions: minimal inhibitory concentration against E. coli DH5α; 96-well plate, 5×10^5 CFU/mL, 37° C., judged after 8 h
Procedure, shortened: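 Log-phase bacteria (OD600 ~0.5) resuspended in LB at 5×10^5 CFU/mL, exposed to recombinant protein at 50, 25, 12.5 μg/mL final in triplicate, 37 °C shaking at 175 rpm. OD600 read every 30 min; MIC is lowest concentration showing no growth.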

[2] = test system: E. coli BL21; assay: MIC against Gram-negative bacteria: E. coli BL21; conditions: for MIC E. coli BL21 / MIC (μg/mL) E. coli BL21 / MIC against E. coli BL21: 5×10^5 CFU/mL; for MIC E. coli BL21: two-fold serial dilution; for MIC against E. coli BL21: 96-well plate, 37° C., 10 h
Procedure, shortened: (§1)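 LB broth cultures at McFarland 0.5, spun down, resuspended, diluted to 5×10^5 CFU/mL final. Two-fold serial dilutions of purified human EGF domain proteins, triplicate. 37° C, 175 rpm shaking. Endpoint: no visible growth.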

[3] = test system: Pseudomonas aeruginosa; assay: MIC against Gram-negative bacteria: Pseudomonas aeruginosa; conditions: for MIC P. aeruginosa / MIC (μg/mL) P. aeruginosa / MIC against P. aeruginosa: 5×10^5 CFU/mL; for MIC P. aeruginosa: two-fold serial dilution; for MIC against P. aeruginosa: 96-well plate, 37° C., 10 h
Procedure, shortened: as §1

[4] = test system: Klebsiella pneumonia; assay: MIC against Gram-negative bacteria: Klebsiella pneumonia; conditions: for MIC K. pneumonia / MIC (μg/mL) K. pneumonia / MIC against K. pneumonia: 5×10^5 CFU/mL; for MIC K. pneumonia: two-fold serial dilution; for MIC against K. pneumonia: 96-well plate, 37° C., 10 h
Procedure, shortened: as §1

[5] = test system: Enterobacter cloacae; assay: MIC against Gram-negative bacteria: Enterobacter cloacae; conditions: for MIC E. cloacae / MIC (μg/mL) E. cloacae / MIC against E. cloacae: 5×10^5 CFU/mL; for MIC E. cloacae: two-fold serial dilution; for MIC against E. cloacae: 96-well plate, 37° C., 10 h
Procedure, shortened: as §1

[6] = test system: Aeromonas hydrophila; assay: MIC against Gram-negative bacteria: Aeromonas hydrophila; conditions: for MIC A. hydrophila / MIC (μg/mL) A. hydrophila / MIC against A. hydrophila: 5×10^5 CFU/mL; for MIC A. hydrophila: two-fold serial dilution; for MIC against A. hydrophila: 96-well plate, 37° C., 10 h
Procedure, shortened: as §1

[7] = test system: Citrobacter diversus; assay: MIC against Gram-negative bacteria: Citrobacter diversus; conditions: for MIC C. diversus / MIC (μg/mL) C. diversus / MIC against C. diversus: 5×10^5 CFU/mL; for MIC C. diversus: two-fold serial dilution; for MIC against C. diversus: 96-well plate, 37° C., 10 h
Procedure, shortened: as §1

[8] = test system: Moraxella catarrhalis; assay: MIC against Gram-negative bacteria: Moraxella catarrhalis; conditions: for MIC M. catarrhalis / MIC (μg/mL) M. catarrhalis / MIC against M. catarrhalis: 5×10^5 CFU/mL; for MIC M. catarrhalis: two-fold serial dilution; for MIC against M. catarrhalis: 96-well plate, 37° C., 10 h
Procedure, shortened: as §1

[9] = test system: Proteus mirabilis; assay: MIC against Gram-negative bacteria: Proteus mirabilis; conditions: for MIC P. mirabilis / MIC (μg/mL) P. mirabilis / MIC against P. mirabilis: 5×10^5 CFU/mL; for MIC P. mirabilis: two-fold serial dilution; for MIC against P. mirabilis: 96-well plate, 37° C., 10 h
Procedure, shortened: as §1

[10] = test system: Proteus vulgaris; assay: MIC against Gram-negative bacteria: Proteus vulgaris; conditions: for MIC P. vulgaris / MIC (μg/mL) P. vulgaris / MIC against P. vulgaris: 5×10^5 CFU/mL; for MIC P. vulgaris: two-fold serial dilution; for MIC against P. vulgaris: 96-well plate, 37° C., 10 h
Procedure, shortened: as §1

[11] = test system: Serratia marcescens; assay: MIC against Gram-negative bacteria: Serratia marcescens; conditions: for MIC S. marcescens / MIC (μg/mL) S. marcescens / MIC against S. marcescens: 5×10^5 CFU/mL; for MIC S. marcescens: two-fold serial dilution; for MIC against S. marcescens: 96-well plate, 37° C., 10 h
Procedure, shortened: as §1

[12] = E. coli BL21, 10 h cultivation at 37° C.
[13] = P. aeruginosa, 10 h cultivation at 37° C.
[14] = K. pneumonia, 10 h cultivation at 37° C.
[15] = E. cloacae, 10 h cultivation at 37° C.
[16] = A. hydrophila, 10 h cultivation at 37° C.
[17] = C. diversus, 10 h cultivation at 37° C.
[18] = M. catarrhalis, 10 h cultivation at 37° C.
[19] = P. mirabilis, 10 h cultivation at 37° C.
[20] = P. vulgaris, 10 h cultivation at 37° C.
[21] = S. marcescens, 10 h cultivation at 37° C.

PRT1176 (NIDDCSPNNCSHGGTCQDLVNGFKCVCPPQWTGKTCQ; listed as Homo sapiens)
MIC [1]: 12.5 µg/mL | MIC E. coli BL21 ([2]; 10 h cultivation at 37° C.): 50 µg/mL | MIC P. aeruginosa ([3]; 10 h cultivation at 37° C.): 12.5 µg/mL | MIC K. pneumonia ([4]; 10 h cultivation at 37° C.): 50 µg/mL | MIC E. cloacae ([5]; 10 h cultivation at 37° C.): 12.5 µg/mL | MIC A. hydrophila ([6]; 10 h cultivation at 37° C.): 25 µg/mL | MIC C. diversus ([7]; 10 h cultivation at 37° C.): 50 µg/mL | MIC M. catarrhalis ([8]; 10 h cultivation at 37° C.): 12.5 µg/mL | MIC P. mirabilis ([9]; 10 h cultivation at 37° C.): 50 µg/mL | MIC P. vulgaris ([10]; 10 h cultivation at 37° C.): 25 µg/mL | MIC S. marcescens ([11]; 10 h cultivation at 37° C.): 12.5 µg/mL

PRT248 (DVDECSARRGGCPQRCVNTAGSYWCQCWEGHSLSADGTLCV; listed as Homo sapiens)
MIC [1]: 12.5 µg/mL | MIC (μg/mL) E. coli BL21 [2, 12]: 25 µg/mL | MIC (μg/mL) P. aeruginosa [3, 13]: 12.5 µg/mL | MIC (μg/mL) K. pneumonia [4, 14]: 25 µg/mL | MIC (μg/mL) E. cloacae [5, 15]: 12.5 µg/mL | MIC (μg/mL) A. hydrophila [6, 16]: 25 µg/mL | MIC (μg/mL) C. diversus [7, 17]: 12.5 µg/mL | MIC (μg/mL) M. catarrhalis [8, 18]: 25 µg/mL | MIC (μg/mL) P. mirabilis [9, 19]: 12.5 µg/mL | MIC (μg/mL) P. vulgaris [10, 20]: 25 µg/mL | MIC (μg/mL) S. marcescens [11, 21]: 12.5 µg/mL

PRT923 (LDDACISNPCHKGALCDTNPLNGQYICTCPQGYKGADCT; listed as Homo sapiens)
MIC [1]: 25 µg/mL | MIC [2, 12]: 50 µg/mL | MIC [3, 13]: 25 µg/mL | MIC [4, 14]: 25 µg/mL | MIC [5, 15]: 12.5 µg/mL | MIC [6, 16]: 50 µg/mL | MIC [7, 17]: 25 µg/mL | MIC [8, 18]: 12.5 µg/mL | MIC [9, 19]: 25 µg/mL | MIC [10, 20]: 50 µg/mL | MIC [11, 21]: 25 µg/mL

PRT1156 (IIGQCQPHVCFHGNCSNITSNSFICECDEQFSGPFCE; listed as Homo sapiens)
MIC [1]: 50 µg/mL | MIC E. coli BL21 ([2]; 10 h cultivation at 37° C.): 25 µg/mL | MIC P. aeruginosa ([3]; 10 h cultivation at 37° C.): 12.5 µg/mL | MIC K. pneumonia ([4]; 10 h cultivation at 37° C.): 25 µg/mL | MIC E. cloacae ([5]; 10 h cultivation at 37° C.): 25 µg/mL | MIC A. hydrophila ([6]; 10 h cultivation at 37° C.): 50 µg/mL | MIC C. diversus ([7]; 10 h cultivation at 37° C.): 25 µg/mL | MIC M. catarrhalis ([8]; 10 h cultivation at 37° C.): 12.5 µg/mL | MIC P. mirabilis ([9]; 10 h cultivation at 37° C.): 50 µg/mL | MIC P. vulgaris ([10]; 10 h cultivation at 37° C.): 12.5 µg/mL | MIC S. marcescens ([11]; 10 h cultivation at 37° C.): 50 µg/mL

PRT1247 (WGARCEHACQCQHGTCHPRSGACRCEPGWWGAQCA; listed as Homo sapiens)
MIC [1]: 50 µg/mL | MIC against E. coli BL21 ([2]; E. coli BL21): 12.5 µg/mL | MIC against P. aeruginosa ([3]; Pseudomonas aeruginosa): 12.5 µg/mL | MIC against K. pneumonia ([4]; Klebsiella pneumonia): 25 µg/mL | MIC against E. cloacae ([5]; Enterobacter cloacae): 12.5 µg/mL | MIC against A. hydrophila ([6]; Aeromonas hydrophila): 12.5 µg/mL | MIC against C. diversus ([7]; Citrobacter diversus): 25 µg/mL | MIC against M. catarrhalis ([8]; Moraxella catarrhalis): 12.5 µg/mL | MIC against P. mirabilis ([9]; Proteus mirabilis): 25 µg/mL | MIC against P. vulgaris ([10]; Proteus vulgaris): 12.5 µg/mL | MIC against S. marcescens ([11]; Serratia marcescens): 25 µg/mL

PRT483 (DCRAVYDRYSDDFCSGHGQCNCGRCDCKAGWYGKKCE; listed as Homo sapiens)
MIC [1]: 12.5 µg/mL | MIC against E. coli BL21 [2]: 25 µg/mL | MIC against P. aeruginosa [3]: 50 µg/mL | MIC against K. pneumonia [4]: 25 µg/mL | MIC against E. cloacae [5]: 12.5 µg/mL | MIC against A. hydrophila [6]: 25 µg/mL | MIC against C. diversus [7]: 50 µg/mL | MIC against M. catarrhalis [8]: 25 µg/mL | MIC against P. mirabilis [9]: 12.5 µg/mL | MIC against P. vulgaris [10]: 25 µg/mL | MIC against S. marcescens [11]: 50 µg/mL

PRT268 (SFKCRCDSGFALDSEERNCTDIDE; listed as Homo sapiens)
MIC [1]: 12.5 µg/mL | MIC (μg/mL) E. coli BL21 [2, 12]: 25 µg/mL | MIC (μg/mL) P. aeruginosa [3, 13]: 12.5 µg/mL | MIC (μg/mL) K. pneumonia [4, 14]: 25 µg/mL | MIC (μg/mL) E. cloacae [5, 15]: 50 µg/mL | MIC (μg/mL) A. hydrophila [6, 16]: 25 µg/mL | MIC (μg/mL) C. diversus [7, 17]: 12.5 µg/mL | MIC (μg/mL) M. catarrhalis [8, 18]: 25 µg/mL | MIC (μg/mL) P. mirabilis [9, 19]: 50 µg/mL | MIC (μg/mL) P. vulgaris [10, 20]: 12.5 µg/mL | MIC (μg/mL) S. marcescens [11, 21]: 12.5 µg/mL
